Paper PMC5494507, “γ‐Secretase inhibitors in cancer clinical trials are pharmacologically and functionally distinct” (EMBO Molecular Medicine, 2017)

What was measured:
cNOTCH1‐4sub = experiment: Average of cell-based IC50s on cNOTCH1-4sub in H4 cells; design: species or system human; conditions: read-out: Average IC50s of each GSI on cNOTCH1‐4sub
Description: Using these cell‐based γ‐secretase cleavage assays, we systematically investigated the substrate inhibition profile of BMS‐906024, MK‐0752, PF‐308414, RO4929097, Semagacestat, and DAPT. We treated H4 cells stably expressing cNOTCH1‐4sub with 4 pM to 10 μM of GSIs (Fig 5A and Table 2) and measured the Aβ‐like peptide secreted into the media.
For the cell‐based assay, all substrates contain a human NOTCH4 signal peptide sequence ([…]), amyloid β peptide (Aβ1–25/K16A) epitope tag followed by the juxtamembrane region (JMD) of the given substrate and a FLAG tag ([…]) at the COOH‐terminal. K16A mutant was created to decrease potential α‐secretase cleavage. The cDNAs were generated by gene synthesis conducted by Genscript. A schematic representation of the substrates is provided in Fig 4A, and sequences of the cDNAs and the proteins are provided in Appendix Fig S6. For clarity, these substrates are referred to as cell‐based assay substrates (e.g., NOTCH1 is cNOTCH1sub). Substrate cDNAs were cloned into pCDNA3.1 (Invitrogen, Carlsbad, CA, USA) for expression in H4 cells (ATCC, Manassas, VA).
(§1) H4 cells were cultured in Opti‐mem media (Thermo‐Fisher) supplemented with Hyclone 6% fetal bovine serum (GE, Logan, Utah, USA) and 1% penicillin/streptomycin (Life Technologies, Grand Island, NY, USA). pCDNA3.1 plasmids containing the substrate cDNAs were transfected into H4 cells using FuGENE HD reagent (Madison, WI, USA). Stable cell lines were established using G418 selection. […] Cells and conditioned media were used for WB, IP, and ELISA.
(§2) Sandwich ELISAs used for Aβ detection were performed as previously described (Murphy et al, 1999; Ran et al, 2014). Briefly, Aβ and Aβ‐like peptides in conditioned media were captured with Ab5 antibody and detected with horseradish peroxidase labeled mAb 4G8 (Biolegend). Synthetic Aβ1‐40 was used as standard. All ELISAs were developed with TMB substrate (KPL, Gaithersburg, Maryland, USA). Bis‐Tris precast gels (Biorad, Hercules, CA, USA) were used for all SDS–PAGE. Monoclonal anti‐FLAG M2 antibody (Sigma) and Aβ1‐16 antibody 6E10 (Covance) were used for Western blotting at 1:1,000 dilution. Anti‐CD74 In‐1 antibody (BD Bioscience, San Jose, CA, USA) was used for A20 cell lysate Western blotting at dilution of 1:1,000. MDA‐MB‐231 cell extracts were prepared by lysing cells in RIPA buffer containing protease and phosphatase inhibitors. The lysates were kept on ice for 30 min and vortexed every 10 min, and then centrifuged at 4°C for 10 min at 1,000 g. The supernatants were collected, and protein concentrations were determined by Bradford Assay. Pan‐NOTCH1 antibody (C‐20) (Santa Cruz Biotechnology) and cleaved NOTCH1 (Val1744) antibody ([…]) were used at 1:500 and 1:100 dilution in the test of endogenous NOTCH1 inhibition with β‐actin expression used as loading control. β‐actin antibody was used at 1:1,000 dilution (Sigma). Band intensities normalized for actin using densitometry analysis with ImageJ Software (NIH, USA).

SPPL2a = target: T1, SPPL2a (Mus musculus, UniProt Q9JJF9); experiment: Endogenous CD74 P8 turnover in A20 cells (Western blot, In-1 antibody), biomarker for SPPL2a cleavage; format: cell-based; conditions: 16 h
T1 construct: To verify the finding in a non‐overexpressing cell line; endogenous in cells; host or cells: A20 (ATCC TIB-208)
T1 sequence (Q9JJF9 26-523): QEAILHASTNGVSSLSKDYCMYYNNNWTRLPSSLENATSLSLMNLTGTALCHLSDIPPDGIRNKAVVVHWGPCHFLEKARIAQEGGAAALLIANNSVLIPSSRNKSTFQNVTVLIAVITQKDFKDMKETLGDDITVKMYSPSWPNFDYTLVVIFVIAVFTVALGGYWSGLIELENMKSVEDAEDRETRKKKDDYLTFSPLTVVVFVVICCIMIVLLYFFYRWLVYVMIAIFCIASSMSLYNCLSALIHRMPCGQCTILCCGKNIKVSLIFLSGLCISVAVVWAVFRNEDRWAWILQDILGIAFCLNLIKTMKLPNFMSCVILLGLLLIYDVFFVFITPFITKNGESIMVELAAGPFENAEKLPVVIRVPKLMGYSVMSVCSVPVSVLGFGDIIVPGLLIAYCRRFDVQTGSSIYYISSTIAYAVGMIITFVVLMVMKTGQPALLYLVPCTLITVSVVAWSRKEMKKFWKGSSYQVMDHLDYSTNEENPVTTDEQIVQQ
Description: To verify the finding in a non‐overexpressing cell line, we applied the inhibitors to the mouse B lymphocyte cell line A20 (ATCC TIB‐208).
(§3) SPPL2a, SPPL2b, SPP, and chimeric substrate FBA were generated as previously described (Ran et al, 2015). A20 cells (TIB‐208; ATCC, Manassas, VA, USA) were cultured in RPMI‐1640 medium (ATCC) supplied with 10% fetal bovine serum, 1% penicillin/streptomycin, and 0.05 mM 2‐mercaptoethanol (Life Technologies). Various concentrations of GSIs and (ZLL)2‐ketone as indicated in figures were applied to transfected HEK 293t cells at 70–90% confluence or A20 cells at a density of 5 × 10^5 cells/ml with fresh media in 48‐well format for 16 h. Cells and conditioned media were used for WB, IP, and ELISA.
as §2

full‐length APP = experiment: Cell-based γ-secretase cleavage assay, full-length APP stably overexpressing cells (Aβ ELISA); conditions: for IC50: full-length APP stably overexpressing cells, Aβ ELISA
Description: We next tested all GSIs on cAPPC100sub and full‐length APP stably overexpressing cells. […] The low‐dose potentiation of γ‐secretase cleavage was further mechanistically probed using in vitro assays with recombinant substrates and IP‐MS.
as §1, §2

SPPL2a, SPPL2b, and SPP = experiment: Cell-based SPPLs cleavage assay, HEK 293t cells co-transfected with FBA and SPPLs (ELISA); conditions: 1 μM, HEK 293t co-transfected with SPPLs and FBA
Description: It is known that SPP/SPPLs can be inhibited by select GSIs (Ran et al, 2015). Here, we tested the effect of various GSIs on the SPP/SPPL family members SPPL2a, SPPL2b, and SPP. We co‐transfected SPPLs with the BRI2 based chimeric SPP/SPPL substrate that we have referred to as FBA into HEK 293t cells. SPPL‐specific inhibitor (ZLL)2‐ketone was used as positive control. DAPT was not tested here as we and others have previously reported it had no effect on SPP activity at concentration up to 100 μM (Weihofen et al, 2003). […] Dose responses of BMS‐906024, RO4929097, and PF‐3084014 were performed with a similar strategy, but a stable SPPL2b/FBA overexpressing HEK 293 cell line was used instead of transient transfection (Fig 8B). […] Table 3 compares the GSIs’ potencies on γ‐secretase and SPPL2b. The average of IC50s on cNOTCH1sub, cNOTCH2sub, cNOTCH4sub, and APP was used as the GSI's potency on γ‐secretase.
as §3, §2

| Compound | IC50 (cNOTCH1‐4sub) | stabilization of CD74 8 kDa NTF P8 (SPPL2a; 40 nM) | IC50 (full‐length APP) | SPPLs‐catalyzed cleavage of FBA substrate (SPPL2a, SPPL2b, and SPP) | stabilization of CD74 8 kDa NTF P8 (SPPL2a; at the tested dose) | low-dose potentiation of cleavage, APP (full‐length APP; full-length APP overexpressing cells) | stabilization of CD74 8 kDa NTF P8 (SPPL2a; 1,000 nM) |
| --- | --- | --- | --- | --- | --- | --- | --- |
| CN1C(=O)[C@@H](NC(=O)[C@H](CCC(F)(F)F)[C@H](CCC(F)(F)F)C(N)=O)N=C(c2ccccc2)c2ccccc21 [BMS‐906024] | 0.57 nM | greatly stabilized | 0.05 nM | efficiently inhibited | – | – | – |
| O=C(O)CC[C@H]1CC[C@@](c2cc(F)ccc2F)(S(=O)(=O)c2ccc(Cl)cc2)CC1 [MK‐0752] | – | – | 9.03 nM | did not show significant inhibition | did not show stabilization activity | – | – |
| CCC[C@H](N[C@H]1CCc2cc(F)cc(F)c2C1)C(=O)Nc1cn(C(C)(C)CNCC(C)(C)C)cn1 [PF‐3084014] | 0.66 nM | slightly stabilized | 0.07 nM | mild inhibition | – | – | – |
| CC(C)(C(=O)NCC(F)(F)C(F)(F)F)C(=O)N[C@@H]1C(=O)Nc2ccccc2-c2ccccc21 [RO4929097] | 6.48 nM | greatly stabilized | 1.41 nM | efficiently inhibited | – | low‐dose potentiation of cleavage was observed | – |
| CC(C)[C@H](O)C(=O)N[C@@H](C)C(=O)N[C@@H]1C(=O)N(C)CCc2ccccc21 [Semagacestat] | 121 nM | – | 24.5 nM | did not show significant inhibition | – | – | weak stabilization |
